The text below walks through data of patent US20190177284A1, “TETRAZOLYL-CONTAINING CYCLOPROPANECARBOXAMIDES” (Bayer Pharma Aktiengesellschaft, priority 2017, published 2019).

Tested on in the first series: not given
Experiment: not given
To be noted: cited from earlier work.
Turning to `C[C@@H]1CC[C@H](C)N1C(=O)c1ccc([C@@H](C)NC(=O)C2(NC(=O)c3cc(F)cc(C(F)(F)F)c3)CC2)c(F)c1`, the human metabolic stability result is on record as “poor”.

Tested on in the next series: not given
Experiment: not given
To be noted: due to metabolic liability; cited from earlier work.
For `C[C@@H](NC(=O)C1(NC(=O)C(F)(F)F)CC1)c1ccc(-c2cccc(Cl)c2C(=O)O)cc1F` [MK-0686], the pharmacokinetic profile result is recorded as “suboptimal”.

Tested on in another series: not given
Experiment: not given
To be noted: cited from earlier work. This is another data set of the same source.
On to `C[C@@H]1CC[C@H](C)N1C(=O)c1ccc([C@@H](C)NC(=O)C2(NC(=O)c3cc(F)cc(C(F)(F)F)c3)CC2)c(F)c1`, for which the aqueous solubility entry is listed as “reasonable”.

The next series addresses T1, human Bradykinin B1 receptor (Homo sapiens, UniProt P46663).
T1 construct: host or cells: CHO-K1
T1 sequence (P46663 1-353): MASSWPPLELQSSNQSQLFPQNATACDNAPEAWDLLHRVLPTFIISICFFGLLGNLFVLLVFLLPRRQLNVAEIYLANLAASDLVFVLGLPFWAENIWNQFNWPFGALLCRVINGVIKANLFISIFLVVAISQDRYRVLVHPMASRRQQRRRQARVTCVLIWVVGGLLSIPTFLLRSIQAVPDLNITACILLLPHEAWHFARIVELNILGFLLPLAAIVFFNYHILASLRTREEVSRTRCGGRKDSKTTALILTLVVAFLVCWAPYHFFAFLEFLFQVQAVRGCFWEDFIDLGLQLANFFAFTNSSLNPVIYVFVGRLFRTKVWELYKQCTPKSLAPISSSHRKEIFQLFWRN
The experiment in a line: Calcium flux Assay (FLIPR) with cells expressing human Bradykinin B1 receptor (hB1). The conditions noted are these: absence of 0.1% BSA in assay buffer; CHO-K1 cell line expressing human B1 receptor; agonist Lys-(Des-Arg)-Bradykinin; read-out: hB1 free IC50. The class given is cell-based. (In general: A change in cytosolic calcium serves as a functional read-out for many receptors and channels.)
As usually defined, the IC50 is the concentration needed to halve the response being measured. On to `O=C(NC1CCCC1)c1ccc(NC(=O)C2(c3ccc(C(F)(F)F)cc3F)CC2)cc1-c1nnn[nH]1` [Example 39, N-cyclopentyl-4-[({1-[2-fluoro-4-(trifluoromethyl)phenyl]cyclopropyl}carbonyl)amino]-2-(1H-tetrazol-5-yl)benzamide], for which the half-maximal inhibitory concentration (IC50) was 34 nM. Same read-out and setting: under `Cc1cc(NC(=O)C2(c3ccc(C(F)(F)F)cc3F)CC2)cc(-c2nnn[nH]2)c1C(=O)OC1CCCC1` [Example 64, Cyclopentyl 4-[({1-[2-fluoro-4-(trifluoromethyl)phenyl]cyclopropyl}carbonyl)amino]-2-methyl-6-(1H-tetrazol-5-yl)benzoate] stands 25 nM.

Turning to `CCC(C)OC(=O)c1ccc(NC(=O)C2(c3ccc(F)c(F)c3)CC2)cc1-c1nnn[nH]1` (racemic) [Example 8, sec-Butyl 4-({[1-(3,4-difluorophenyl)cyclopropyl]carbonyl}amino)-2-(1H-tetrazol-5-yl)benzoate], the IC50 is 21 nM.

As for `O=C(OC1CCOCC1)c1ccc(NC(=O)C2(c3ccc(C(F)(F)F)cc3F)CC2)cc1-c1nnn[nH]1` [Example 21, Tetrahydro-2H-pyran-4-yl 4-[({1-[2-fluoro-4-(trifluoromethyl)phenyl]cyclopropyl}carbonyl)amino]-2-(1H-tetrazol-5-yl)benzoate], the concentration for half-maximal inhibition (IC50) amounted to 22 nM.

For `COCC(C)OC(=O)c1ccc(NC(=O)C2(c3ccc(C(F)(F)F)cc3F)CC2)cc1-c1nnn[nH]1` (racemic) [Example 32, 1-Methoxypropan-2-yl 4-[({1-[2-fluoro-4-(trifluoromethyl)phenyl]cyclopropyl}carbonyl)amino]-2-(1H-tetrazol-5-yl)benzoate], the concentration for half-maximal inhibition (IC50) is 13 nM. As for `O=C(NC1CCCCC1)c1ccc(NC(=O)C2(c3ccc(C(F)(F)F)cc3F)CC2)cc1-c1nnn[nH]1` [Example 42, N-cyclohexyl-4-[({1-[2-fluoro-4-(trifluoromethyl)phenyl]cyclopropyl}carbonyl)amino]-2-(1H-tetrazol-5-yl)benzamide], the IC50 stood at 34 nM. On the same count and under the same terms, under `CCC(C)OC(=O)c1ccc(NC(=O)C2(c3ccc(C(F)(F)F)cc3F)CC2)cc1-c1nnn[nH]1` (racemic) [Example 10, sec-Butyl 4-[({1-[2-fluoro-4-(trifluoromethyl)phenyl]cyclopropyl}carbonyl)amino]-2-(1H-tetrazol-5-yl)benzoate] stands 4 nM; under `CC[C@@H](C)OC(=O)c1ccc(NC(=O)C2(c3ccc(OC(F)(F)F)cc3F)CC2)cc1-c1nnn[nH]1` [Example 26, (2R)-Butan-2-yl 4-[({1-[2-fluoro-4-(trifluoromethoxy)phenyl]cyclopropyl}carbonyl)amino]-2-(1H-tetrazol-5-yl)benzoate], 3 nM.

In the case of `O=C(c1ccc(NC(=O)C2(c3ccc(C(F)(F)F)cc3F)CC2)cc1-c1nnn[nH]1)N1CCCCC1` [Example 34, 1-[2-Fluoro-4-(trifluoromethyl)phenyl]-N-[4-(piperidin-1-ylcarbonyl)-3-(1H-tetrazol-5-yl)phenyl]cyclopropanecarboxamide], the half-inhibitory concentration (IC50) is 70 nM. The same measure, in the same setting: the value for `O=C(O[C@@H]1CCOC1)c1ccc(NC(=O)C2(c3ccc(C(F)(F)F)cc3F)CC2)cc1-c1nnn[nH]1` [Example 20, (3R)-Tetrahydrofuran-3-yl 4-[({1-[2-fluoro-4-(trifluoromethyl)phenyl]cyclopropyl}carbonyl)amino]-2-(1H-tetrazol-5-yl)benzoate] was 14 nM; that for `O=C(OC1CCC1)c1ccc(NC(=O)C2(c3ccc(C(F)(F)F)cc3F)CC2)cc1-c1nnn[nH]1` [Example 30, Cyclobutyl 4-[({1-[2-fluoro-4-(trifluoromethyl)phenyl]cyclopropyl}carbonyl)amino]-2-(1H-tetrazol-5-yl)benzoate] was 2 nM; that for `CCOC(=O)c1ccc(NC(=O)C2(c3cccc(Cl)c3)CC2)cc1-c1nnn[nH]1` [Example 1, Ethyl 4-({[1-(3-chlorophenyl)cyclopropyl]carbonyl}amino)-2-(1H-tetrazol-5-yl)benzoate] was 136 nM.

Tested on in a further series: not given
Experiment: not given
The conditions noted are these: cited from earlier work. The source holds these as a separate data set.
Turning to `C[C@@H]1CC[C@H](C)N1C(=O)c1ccc([C@@H](C)NC(=O)C2(NC(=O)c3cc(F)cc(C(F)(F)F)c3)CC2)c(F)c1`, the “pharmacokinetic profile in rat” value is “reasonable”.
